In patent US11040035B2, “3-oxo-2,6-diphenyl-2,3-dihydropyridazine-4-carboxamides” (BAYER PHARMA AKTIENGESELLSCHAFT, priority 2016, dated 2021):

Assays:
[1] = target: T1, AHR (Homo sapiens, UniProt P35869); assay: In vitro assay 2: agonism in human cell line (transactivation assay); details: Assay 2: AHR-luc Hum Agonism IC50 [M], no kynurenic acid, 20 hours, firefly luciferase
T1 sequence (P35869 11-848): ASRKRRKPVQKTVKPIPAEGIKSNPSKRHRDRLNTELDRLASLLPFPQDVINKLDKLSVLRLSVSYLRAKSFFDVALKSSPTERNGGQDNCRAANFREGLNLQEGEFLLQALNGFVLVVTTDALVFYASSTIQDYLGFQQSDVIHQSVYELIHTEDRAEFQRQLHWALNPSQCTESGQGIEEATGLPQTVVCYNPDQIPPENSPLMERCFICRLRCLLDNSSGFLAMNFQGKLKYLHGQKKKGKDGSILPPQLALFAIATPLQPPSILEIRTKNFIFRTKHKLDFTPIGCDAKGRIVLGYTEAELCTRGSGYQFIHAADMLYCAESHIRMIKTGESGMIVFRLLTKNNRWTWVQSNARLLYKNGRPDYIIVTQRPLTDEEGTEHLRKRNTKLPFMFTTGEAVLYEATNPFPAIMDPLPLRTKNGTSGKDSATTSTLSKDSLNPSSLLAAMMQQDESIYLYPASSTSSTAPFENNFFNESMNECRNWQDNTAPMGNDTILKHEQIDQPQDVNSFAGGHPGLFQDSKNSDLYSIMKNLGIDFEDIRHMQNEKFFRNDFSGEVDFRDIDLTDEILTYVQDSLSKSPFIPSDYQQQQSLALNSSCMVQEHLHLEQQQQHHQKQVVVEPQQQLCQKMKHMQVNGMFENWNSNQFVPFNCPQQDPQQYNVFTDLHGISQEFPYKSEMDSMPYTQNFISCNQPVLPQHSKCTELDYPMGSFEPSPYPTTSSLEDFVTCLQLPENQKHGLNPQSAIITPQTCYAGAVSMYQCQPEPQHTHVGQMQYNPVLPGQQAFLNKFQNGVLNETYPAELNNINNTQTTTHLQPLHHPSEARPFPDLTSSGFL
Experimental: Transactivation Assay in Human Cell Line (In Vitro Assays 1 and 2)
Transactivation assays were carried out in U87 glioblastoma cells (ATCC) endogenously expressing AHR. In addition the cells were stably transfected with an AHR inducible firefly luciferase reporter gene construct that carried AHR-binding sites (DRE) in its promoter and a renilla reporter gene construct with constitutively active promoter.
In Vitro Assay 2: Agonism in Human Cell Line
Cells in medium (tryptophan free RPMI, 1% FCS, 2 mM Glutamine) were grown for 20 hours in absence (negative control) or presence of increasing concentrations of test compounds (typical dilutions: 72 pmol/L, 0.25 nmol/L, 0.89 nmol/L; 3.1 nmol/L, 11 nmol/L, 38 nmol/L, 130 nmol/L, 470 nmol/L, 1.6 μmol/L, 5.7 μmol/L and 20 μmol/L in duplicates). As positive activation control cells were incubated with 300 μM kynurenic acid. Normalization was done by positive and negative controls.
Firefly luciferase activity was determined by the SteadyGlo Luciferase Assay System (Promega, #2520).

[2] = target: T1, AHR; assay: In vitro assay 1: antagonism in human cell line (transactivation assay, kynurenic acid prestimulated); details: Assay 1: AHR-luc Hum Antagonism IC50 [M], 150 μM kynurenic acid, 20 hours, firefly luciferase
Experimental: Transactivation assays were carried out in U87 glioblastoma cells (ATCC) endogenously expressing AHR. In addition the cells were stably transfected with an AHR inducible firefly luciferase reporter gene construct that carried AHR-binding sites (DRE) in its promoter and a renilla reporter gene construct with constitutively active promoter. Kynurenic acid is an endogenous AHR activating ligand and was used to prestimulate test cells prior to testing the antagonistic properties of compounds.
In Vitro Assay 1: Antagonism in Human Cell Line
Cells in medium (tryptophan free RPMI, 1% FCS, 2 mM Glutamine) supplemented with 150 μM kynurenic acid were grown for 20 hours in absence (negative control) or presence of increasing concentrations of test compounds (typical dilutions: 72 pmol/L, 0.25 nmol/L, 0.89 nmol/L; 3.1 nmol/L, 11 nmol/L, 38 nmol/L, 130 nmol/L, 470 nmol/L, 1.6 μmol/L, 5.7 μmol/L and 20 μmol/L in duplicates). As positive inhibition control cells supplemented with 150 μM kynurenic acid were incubated in presence of 5 μM Staurosporin. Normalization was done by positive and negative controls.
Firefly luciferase and Renilla activity was determined by the DualGlo Luciferase Assay System (Promega, #2920).

Q: Which results are given for `CC(C)[C@@H](CO)NC(=O)c1cc(-c2ccc(OC(F)F)cc2)nn(-c2cccc(F)c2)c1=O` [Example 110, 6-[4-(Difluoromethoxy)phenyl]-2-(3-fluorophenyl)-N-[(2S)-1-hydroxy-3-methylbutan-2-yl]-3-oxo-2,3-dihydropyridazine-4-carboxamide]?
A: IC50 [1]: > 2e-05 M; IC50 [2]: 1.79e-08 M

Q: With `COc1ccc(-c2cc(C(=O)N[C@H](CO)C(C)C)c(=O)n(-c3cccc(F)c3)n2)cc1` [Example 113, 2-(3-Fluorophenyl)-N-[(2S)-1-hydroxy-3-methylbutan-2-yl]-6-(4-methoxyphenyl)-3-oxo-2,3-dihydropyridazine-4-carboxamide] as the molecule, how does the IC50 [1] read?
A: The IC50 was > 2e-05 M.

Q: And the IC50 [2]?
A: The IC50 was 1.8e-08 M.

Q: What does the source list for `O=C(NCC(O)C(F)(F)F)c1cc(-c2ccc(OC(F)F)cc2)nn(-c2cccc(F)c2)c1=O` (stereo not shown) [Example 120, 6-[4-(Difluoromethoxy)phenyl]-2-(3-fluorophenyl)-3-oxo-N-(3,3,3-trifluoro-2-hydroxypropyl)-2,3-dihydropyridazine-4-carboxamide]?
A: IC50 [1]: > 2e-05 M; IC50 [2]: 4.47e-08 M

Q: What does the source list for `COc1ccc(-c2cc(C(=O)NCC(O)C(F)(F)F)c(=O)n(-c3cccc(F)c3)n2)cc1` (stereo not shown) [Example 126, 2-(3-Fluorophenyl)-6-(4-methoxyphenyl)-3-oxo-N-(3,3,3-trifluoro-2-hydroxypropyl)-2,3-dihydropyridazine-4-carboxamide]?
A: IC50 [1]: > 2e-05 M; IC50 [2]: 5.13e-08 M

Q: How did the IC50 [1] turn out when `C[C@H](O)[C@H](CO)NC(=O)c1cc(-c2ccc(Cl)cc2)nn(-c2cccc(F)c2)c1=O` [Example 132, 6-(4-Chlorophenyl)-N-[(2S,3S)-1,3-dihydroxybutan-2-yl]-2-(3-fluorophenyl)-3-oxo-2,3-dihydropyridazine-4-carboxamide] was run?
A: The IC50 was > 2e-05 M.

Q: What about the IC50 [2] of the same molecule?
A: The IC50 was 1.36e-07 M.

Q: `CC[C@@H](CO)NC(=O)c1cc(-c2ccc(OC(F)F)cc2)nn(-c2cccc(F)c2)c1=O` [Example 137, 6-[4-(Difluoromethoxy)phenyl]-2-(3-fluorophenyl)-N-[(2S)-1-hydroxybutan-2-yl]-3-oxo-2,3-dihydropyridazine-4-carboxamide] was tested. Which IC50 [1] did it give?
A: The IC50 was > 2e-05 M.

Q: What about the IC50 [2] of the same molecule?
A: The IC50 was 4.99e-08 M.

Q: Which IC50 [1] does the source give for `COc1ccc(-c2cc(C(=O)NC(C)C(C)O)c(=O)n(-c3cccc(F)c3)n2)cc1` (stereo not shown) [Example 138, 2-(3-Fluorophenyl)-N-(3-hydroxybutan-2-yl)-6-(4-methoxyphenyl)-3-oxo-2,3-dihydropyridazine-4-carboxamide] here?
A: Its IC50 is > 2e-05 M.

Q: And the IC50 [2]?
A: The IC50 was 5.02e-08 M.

Q: Which IC50 [1] does the source give for `COc1ccc(-c2cc(C(=O)N[C@@H]3CCC[C@@H]3O)c(=O)n(-c3cccc(F)c3)n2)cc1` [Example 139, 2-(3-Fluorophenyl)-N-[(1R,2S)-2-hydroxycyclopentyl]-6-(4-methoxyphenyl)-3-oxo-2,3-dihydropyridazine-4-carboxamide] here?
A: Its IC50 is > 2e-05 M.

Q: What about the IC50 [2] of the same molecule?
A: Its IC50 is 6.97e-08 M.

Q: `CC(O)C(C)NC(=O)c1cc(-c2ccc(OC(F)F)cc2)nn(-c2cccc(F)c2)c1=O` (stereo not shown) [Example 140, 6-[4-(Difluoromethoxy)phenyl]-2-(3-fluorophenyl)-N-(3-hydroxybutan-2-yl)-3-oxo-2,3-dihydropyridazine-4-carboxamide] was tested. Which IC50 [1] did it give?
A: Its IC50 is > 2e-05 M.

Q: And the IC50 [2]?
A: The IC50 was 2.05e-07 M.

Q: Which IC50 [1] does the source give for `O=C(NC(CO)C1CCOC1)c1cc(-c2ccc(OC(F)F)cc2)nn(-c2cccc(F)c2)c1=O` (stereo not shown) [Example 144, 6-[4-(Difluoromethoxy)phenyl]-2-(3-fluorophenyl)-N-{(2-hydroxy-1-tetrahydrofuran-3-yl)ethyl}-3-oxo-2,3-dihydropyridazine-4-carboxamide] here?
A: The IC50 was > 2e-05 M.

Q: And the IC50 [2]?
A: Its IC50 is 8.37e-08 M.

Q: With `O=C(NC(CO)C1CCOCC1)c1cc(-c2ccc(Cl)cc2)nn(-c2cccc(F)c2)c1=O` (stereo not shown) [Example 149] as the molecule, how does the IC50 [1] read?
A: The IC50 was > 2e-05 M.

Q: What about the IC50 [2] of the same molecule?
A: The IC50 was 1.87e-07 M.

Q: `COC(=O)[C@H](CO)NC(=O)c1cc(-c2ccc(Cl)cc2)nn(-c2cccc(F)c2)c1=O` [Example 153, Methyl N-{[6-(4-chlorophenyl)-2-(3-fluorophenyl)-3-oxo-2,3-dihydropyridazin-4-yl]carbonyl}-L-serinate] was tested. Which IC50 [1] did it give?
A: Its IC50 is > 2e-05 M.

Q: And the IC50 [2]?
A: Its IC50 is 1.43e-07 M.

Q: Which results are given for `C[C@@H](CO)NC(=O)c1cc(-c2ccc(OC(F)F)cc2)nn(-c2cccc(F)c2)c1=O` [Example 155, 6-[4-(Difluoromethoxy)phenyl]-2-(3-fluorophenyl)-N-[(2S)-1-hydroxypropan-2-yl]-3-oxo-2,3-dihydropyridazine-4-carboxamide]?
A: IC50 [1]: > 2e-05 M; IC50 [2]: 1.7e-07 M

Q: Which results are given for `O=C(NC[C@H](O)CO)c1cc(-c2ccc(Cl)cc2)nn(-c2cccc(F)c2)c1=O` [Example 156, 6-(4-Chlorophenyl)-N-[(2S)-2,3-dihydroxypropyl]-2-(3-fluorophenyl)-3-oxo-2,3-dihydropyridazine-4-carboxamide]?
A: IC50 [1]: > 2e-05 M; IC50 [2]: 1.99e-07 M

Q: For `O=C(N[C@H](CO)C1CCCC1)c1cc(-c2ccc(Cl)cc2)nn(-c2cccc(F)c2)c1=O` [Example 157, 6-(4-Chlorophenyl)-N-[(1S)-1-cyclopentyl-2-hydroxyethyl]-2-(3-fluorophenyl)-3-oxo-2,3-dihydropyridazine-4-carboxamide], which IC50 [1] is on record?
A: The IC50 was > 2e-05 M.

Q: What about the IC50 [2] of the same molecule?
A: Its IC50 is 2.22e-07 M.

Q: For `O=C(NC[C@@H](O)CO)c1cc(-c2ccc(Cl)cc2)nn(-c2cccc(F)c2)c1=O` [Example 159, 6-(4-Chlorophenyl)-N-[(2R)-2,3-dihydroxypropyl]-2-(3-fluorophenyl)-3-oxo-2,3-dihydropyridazine-4-carboxamide], which IC50 [1] is on record?
A: Its IC50 is > 2e-05 M.

Q: What about the IC50 [2] of the same molecule?
A: The IC50 was 2.84e-07 M.

Q: With `COCC(O)CNC(=O)c1cc(-c2ccc(OC(F)F)cc2)nn(-c2cccc(F)c2)c1=O` (stereo not shown) [Example 160, 6-[4-(Difluoromethoxy)phenyl]-2-(3-fluorophenyl)-N-(2-hydroxy-3-methoxypropyl)-3-oxo-2,3-dihydropyridazine-4-carboxamide] as the molecule, how does the IC50 [1] read?
A: Its IC50 is > 2e-05 M.

Q: And the IC50 [2]?
A: The IC50 was 3.11e-07 M.

Q: With `O=C(N[C@@H](CO)Cc1cnc[nH]1)c1cc(-c2ccc(Cl)cc2)nn(-c2cccc(F)c2)c1=O` [Example 161, 6-(4-Chlorophenyl)-2-(3-fluorophenyl)-N-[(2R)-1-hydroxy-3-(1H-imidazol-5-yl)propan-2-yl]-3-oxo-2,3-dihydropyridazine-4-carboxamide] as the molecule, how does the IC50 [1] read?
A: Its IC50 is > 2e-05 M.

Q: And the IC50 [2]?
A: Its IC50 is 3.15e-07 M.

Q: Which results are given for `NC(=O)[C@H](CO)NC(=O)c1cc(-c2ccc(Cl)cc2)nn(-c2cccc(F)c2)c1=O` [Example 162, N-[(2S)-1-Amino-3-hydroxy-1-oxopropan-2-yl]-6-(4-chlorophenyl)-2-(3-fluorophenyl)-3-oxo-2,3-dihydropyridazine-4-carboxamide]?
A: IC50 [1]: > 2e-05 M; IC50 [2]: 4.83e-07 M

Q: How did the IC50 [1] turn out when `NC(=O)CC(CO)NC(=O)c1cc(-c2ccc(Cl)cc2)nn(-c2cccc(F)c2)c1=O` (stereo not shown) [Example 163, N-(4-Amino-1-hydroxy-4-oxobutan-2-yl)-6-(4-chlorophenyl)-2-(3-fluorophenyl)-3-oxo-2,3-dihydropyridazine-4-carboxamide] was run?
A: Its IC50 is > 2e-05 M.

Q: What about the IC50 [2] of the same molecule?
A: The IC50 was 4.98e-07 M.

Q: `O=C(N[C@@H](CO)C(=O)O)c1cc(-c2ccc(Cl)cc2)nn(-c2cccc(F)c2)c1=O` [Example 165, N-{[6-(4-Chlorophenyl)-2-(3-fluorophenyl)-3-oxo-2,3-dihydropyridazin-4-yl]carbonyl}-L-serine] was tested. Which IC50 [1] did it give?
A: Its IC50 is > 2e-05 M.

Q: What about the IC50 [2] of the same molecule?
A: The IC50 was > 2e-05 M.

Q: How did the IC50 [1] turn out when `O=C(NC(CO)C1CCOC1)c1cc(-c2ccc(OC(F)(F)F)cc2)nn(-c2cccc(F)c2)c1=O` (stereo not shown) [Example 174, 2-(3-Fluorophenyl)-N-[2-hydroxy-1-(tetrahydrofuran-3-yl)ethyl]-3-oxo-6-[4-(trifluoromethoxy)phenyl]-2,3-dihydropyridazine-4-carboxamide] was run?
A: The IC50 was > 2e-05 M.

Q: What about the IC50 [2] of the same molecule?
A: The IC50 was 3.33e-08 M.

Q: How did the IC50 [1] turn out when `CC(O)C(C)NC(=O)c1cc(-c2ccc(OC(F)(F)F)cc2)nn(-c2cccc(F)c2)c1=O` (stereo not shown) [Example 179, 2-(3-Fluorophenyl)-N-(3-hydroxybutan-2-yl)-3-oxo-6-[4-(trifluoromethoxy)phenyl]-2,3-dihydropyridazine-4-carboxamide] was run?
A: Its IC50 is > 2e-05 M.

Q: And the IC50 [2]?
A: Its IC50 is 7.36e-08 M.

Q: `CC(C)(O)CNC(=O)c1cc(-c2ccc(Cl)cc2)nn(-c2cccc(F)c2)c1=O` [Example 188, 6-(4-Chlorophenyl)-2-(3-fluorophenyl)-N-(2-hydroxy-2-methylpropyl)-3-oxo-2,3-dihydropyridazine-4-carboxamide] was tested. Which IC50 [1] did it give?
A: The IC50 was > 2e-05 M.

Q: And the IC50 [2]?
A: The IC50 was 7.88e-08 M.

Q: For `O=C(NCC1(O)CC1)c1cc(-c2ccc(Cl)cc2)nn(-c2cccc(F)c2)c1=O` [Example 196, 6-(4-Chlorophenyl)-2-(3-fluorophenyl)-N-[(1-hydroxycyclopropyl)methyl]-3-oxo-2,3-dihydropyridazine-4-carboxamide], which IC50 [1] is on record?
A: The IC50 was > 2e-05 M.

Q: And the IC50 [2]?
A: The IC50 was 1.04e-07 M.

Q: Which results are given for `C[C@@H](O)CCNC(=O)c1cc(-c2ccc(Cl)cc2)nn(-c2cccc(F)c2)c1=O` [Example 204, (−)-6-(4-Chlorophenyl)-2-(3-fluorophenyl)-N-[(3R)-3-hydroxybutyl]-3-oxo-2,3-dihydropyridazine-4-carboxamide]?
A: IC50 [1]: > 2e-05 M; IC50 [2]: 3.85e-07 M
